US10470993B2, “Tooth remineralization compositions and methods” (priority 2013, dated 2019)

Tested on: S. mutans
Format: cell-based
Method: Chitosan is a known antimicrobial. The antimicrobial activities of chitosans were determined with XTT assay based on the measurement of bacterial metabolic activities. The bacteria include S. sanguis, S. fecalis, and S. mutans. […] The metabolic activity and viability of S. mutans was decreased with the increase of the molecular weight of chitosan from 1K to 10K, as shown in FIG. 3. […] The relative viability of S. mutans treated with chitosan 10K was only about 10% as compared to the control. […] The chitosan with molecular weight of 10K reached the greatest inhibition effect against S. mutans in our XTT assay.
The antimicrobial activity of chitosan 10K was tested on three different oral bacteria which are major bacteria responsible for the occurrence of dental caries. […] The antimicrobial effects are concentration dependent and increased with increased chitosan concentration.

Substance | relative viability of S. mutans as compared to the control
chitosan [chitosan 5K] | 55%
chitosan [chitosan 10K] | about 10%
